How the values were obtained:
Type in all cases: cell-based
MKN-45 cells = assay: Cancer cell proliferation inhibition (Cell Counting Kit-8), gastric cancer cell line; settings: 1000 nM, cultured seven to 11 days
Excerpt: (§1) Among solid cancer cells, in G401 cells in which expression of SMARCB1, which is a member of switch/sucrosenon-fermenting (SWI/SNF), is defective as a cell line of a rhabdoid tumor in which a therapeutic effect may be expected through dual inhibition of EZH1/2, and MKN-45 cells in which expression of ARID1A, which is a member of SWI/SNF, is defective as a gastric cancer cell line, a proliferation inhibitory ability of the 1,3-benzodioxole derivative compounds represented by chemical formula I of the present invention was evaluated.
(§2) Each cell line (G401 cell, MKN-45 cell, Lovo cell, SW-13 cell, MIA-PaCa-2, NCI-H1299) of Table 2 below was cultured using RPMI1640, McCoy's 5a, L-15 or DMEM containing 10% fetal bovine serum, and the cells were seeded into wells of a 96-well culture dish at 100 to 1,000 cells each, and a test substance 1000 nM was cultured for seven to 11 days after drug treatment. After the culture, the cells were measured according to a manufacturer's instructions using Cell Counting Kit-8, and a cell proliferation inhibitory effect (% inhibition rate) of the test substance was obtained.
(§3) The cell proliferation inhibitory effect (% inhibition rate) of the test substance was calculated using a following equation. % inhibition rate = {1−(testgroup/controlgroup)} X 100 [formula]

Lovo cells = assay: Cancer cell proliferation inhibition (Cell Counting Kit-8), colorectal cancer cell line; settings: 1000 nM, cultured seven to 11 days
Experimental: (§4) In addition, as one example of solid cancer in which an overexpression of EZH2 and a consequent disease association therebetween is reported, a proliferation inhibitory activity of the 1,3-benzodioxole derivative compounds represented by chemical formula I of the present invention was evaluated in Lovo cells as a colorectal cancer cell line, SW-13 cells as an adrenal cancer cell line, MIA-PaCa-2 cells as a pancreatic cancer cell line, and NCI-H1299 cells as a lung cancer cell line.
as §2, §3

NCI-H1299 cells = assay: Cancer cell proliferation inhibition (Cell Counting Kit-8), lung cancer cell line; settings: 1000 nM, cultured seven to 11 days
Experimental: as §4, §2, §3

MIA-PaCa-2 cells = assay: Cancer cell proliferation inhibition (Cell Counting Kit-8), pancreatic cancer cell line; settings: 1000 nM, cultured seven to 11 days
Experimental: as §4, §2, §3

G401 cells = assay: Cancer cell proliferation inhibition (Cell Counting Kit-8), rhabdoid tumor cell line; settings: 1000 nM, cultured seven to 11 days; 1 µM
Excerpt: as §1, §2, §3

SW-13 cells = assay: Cancer cell proliferation inhibition (Cell Counting Kit-8), adrenal cancer cell line; settings: 1000 nM, cultured seven to 11 days
Experimental: as §4, §2, §3

| Compound | % inhibition rate MKN -45 (MKN-45 cells) | % inhibition rate LoVo (Lovo cells; 1 µM) | % inhibition rate NCI-H129 9 (NCI-H1299 cells) | % inhibition rate MIA-Paca2 (MIA-PaCa-2 cells) | % inhibition rate G401 (G401 cells) | % inhibition rate SW-13 (SW-13 cells; 1 µM) | % inhibition rate LoVo (Lovo cells) | % inhibition rate NCI-H129 9 (NCI-H1299 cells; 1 µM) | % inhibition rate SW-13 (SW-13 cells) | % inhibition rate MKN -45 (MKN-45 cells; 1 µM) |
| --- | --- | --- | --- | --- | --- | --- | --- | --- | --- | --- |
| CCN1CCC(C2(C)Oc3c(-c4ccc(N5C[C@@H](C)O[C@@H](C)C5)nc4)cc(C(=O)NCc4c(SC)cc(C)[nH]c4=O)c(C)c3O2)CC1 (single isomer, unassigned) [Compound 50] | + (+: ≤30%) | + (+: ≤30%) | ++ (++: more than 30% and less than 70%) | + (+: ≤30%) | + (+: ≤30%) | + (+: ≤30%) | – | – | – | – |
| CSc1cc(C)[nH]c(=O)c1CNC(=O)c1cc(-c2cnc(N3CCOCC3)nc2)c2c(c1C)OC(C)(C1CCN(CC(F)F)CC1)O2 (single isomer, unassigned) [Compound 72, 2-(1-(2,2-difluoroethyl)piperidin-4-yl)-2,4-dimethyl-N-((6-methyl-4-(methylthio)-2-oxo-1,2-dihydropyridin-3-yl)methyl)-7-(2-morpholinopyrimidin-5-yl)benzo[d][1,3]dioxole-5-carboxamide] | ++ (++: more than 30% and less than 70%) | – | – | + (+: ≤30%) | + (+: ≤30%) | – | +++ (+++: ≥70%) | + (+: ≤30%) | ++ (++: more than 30% and less than 70%) | – |
| CSc1cc(C)[nH]c(=O)c1CNC(=O)c1cc(-c2cnc(N3CCOCC3)nc2)c2c(c1C)OC(C)(C1CCN(CC(F)(F)F)CC1)O2 (single isomer, unassigned) [Compound 70, 2,4-dimethyl-N-((6-methyl-4-(methylthio)-2-oxo-1,2-dihydropyridin-3-yl)methyl)-7-(2-morpholinopyrimidine-5-yl)-2-(1-(2,2,2-trifluoro)piperidin-4-yl)benzo[d][1,3]dioxole-5-carboxamide] | ++ (++: more than 30% and less than 70%) | – | + (+: ≤30%) | + (+: ≤30%) | + (+: ≤30%) | + (+: ≤30%) | +++ (+++: ≥70%) | – | – | – |
| CCN1CCN(c2ncc(-c3cc(C(=O)NCc4c(SC)cc(C)[nH]c4=O)c(C)c4c3OC(C)(C3CCN(CC(F)(F)F)CC3)O4)cn2)CC1 (single isomer, unassigned) [Compound 77, 7-(2-(4-ethylpiperazin-1-yl)pyrimidin-5-yl)-2,4-dimethyl-N-((6-methyl-4-(methylthio)-2-oxo-1,2-dihydropyridin-3-yl)methyl)-2-(1-(2,2,2-trifluoroethyl)piperidin-4-yl)benzo[d][1,3]dioxole-5-carboxamide] | – | ++ (++: more than 30% and less than 70%) | + (+: ≤30%) | + (+: ≤30%) | + (+: ≤30%) | + (+: ≤30%) | – | – | – | + (+: ≤30%) |
| CSc1cc(C)[nH]c(=O)c1CNC(=O)c1cc(-c2ccc(N3C[C@@H](C)O[C@@H](C)C3)nc2)c2c(c1C)OC(C)(C1CCN(C3CCCCC3)CC1)O2 (single isomer, unassigned) [Compound 54] | + (+: ≤30%) | ++ (++: more than 30% and less than 70%) | – | + (+: ≤30%) | ++ (++: more than 30% and less than 70%) | – | – | + (+: ≤30%) | ++ (++: more than 30% and less than 70%) | – |
| CCN(C)c1ncc(-c2cc(C(=O)NCc3c(SC)cc(C)[nH]c3=O)c(C)c3c2OC(C)(C2CCN(CC(F)F)CC2)O3)cn1 (single isomer, unassigned) [Compound 82, 2-(1-(2,2-difluoroethyl)piperidin-4-yl)-7-(2-(ethyl(methyl)amino)pyrimidin-5-yl)-2,4-dimethyl-N-((6-methyl-4-(methylthio)-2-oxo-1,2-dihydropyridin-3-yl)methyl)benzo[d][1,3]dioxole-5-carboxamide] | – | – | + (+: ≤30%) | + (+: ≤30%) | ++ (++: more than 30% and less than 70%) | + (+: ≤30%) | +++ (+++: ≥70%) | – | – | + (+: ≤30%) |
| CCN1CCC(C2(C)Oc3c(-c4cnc(N(C)CC)nc4)cc(C(=O)NCc4c(SC)cc(C)[nH]c4=O)c(C)c3O2)CC1 (single isomer, unassigned) [Compound 84, 7-(2-(ethyl(methyl)amino)pyrimidin-5-yl)-2-(1-ethylpiperidin-4-yl)-2,4-dimethyl-N-((6-methyl-4-(methylthio)-2-oxo-1,2-dihydropyridin-3-yl)methyl)benzo[d][1,3]dioxole-5-carboxamide] | + (+: ≤30%) | + (+: ≤30%) | + (+: ≤30%) | + (+: ≤30%) | + (+: ≤30%) | + (+: ≤30%) | – | – | – | – |
| CSc1cc(C)[nH]c(=O)c1CNC(=O)c1cc(-c2ccc(N3CCOCC3)nc2)c2c(c1C)OC(C)(C1CCN(CC(F)(F)F)CC1)O2 (single isomer, unassigned) [Compound 63, 2,4-dimethyl-N-((6-methyl-4-(methylthio)-2-oxo-1,2-dihydropyridin-3-yl)methyl)-7-(6-morpholinopyridin-3-yl)-2-(1-(2,2,2-trifluoro)piperidin-4-yl)benzo[d][1,3]dioxole-5-carboxamide] | ++ (++: more than 30% and less than 70%) | ++ (++: more than 30% and less than 70%) | – | + (+: ≤30%) | + (+: ≤30%) | + (+: ≤30%) | – | + (+: ≤30%) | – | – |
| CCN1CCC(C2(C)Oc3c(-c4cnc(N5CCOCC5)nc4)cc(C(=O)NCc4c(SC)cc(C)[nH]c4=O)c(C)c3O2)CC1 (single isomer, unassigned) [Compound 74, 2-(1-ethylpiperidin-4-yl)-2,4-dimethyl-N-((6-methyl-4-(methylthio)-2-oxo-1,2-dihydropyridin-3-yl)methyl)-7-(2-morpholinopyrimidin-5-yl)benzo[d][1,3]dioxole-5-carboxamide] | – | – | + (+: ≤30%) | + (+: ≤30%) | + (+: ≤30%) | + (+: ≤30%) | ++ (++: more than 30% and less than 70%) | – | – | + (+: ≤30%) |
| CCN(C)c1ccc(-c2cc(C(=O)NCc3c(SC)cc(C)[nH]c3=O)c(C)c3c2OC(C)(C2CCN(CC(F)(F)F)CC2)O3)cn1 (single isomer, unassigned) [Compound 87, 7-(6-(ethyl(methyl)amino)pyridin-3-yl)-2,4-dimethyl-N-((6-methyl-4-(methylthio)-2-oxo-1,2-dihydropyridin-3-yl)methyl)-2-(1-(2,2,2-trifluoroethyl)piperidin-4-yl)benzo[d][1,3]dioxole-5-carboxamide] | – | – | – | + (+: ≤30%) | + (+: ≤30%) | + (+: ≤30%) | +++ (+++: ≥70%) | + (+: ≤30%) | – | + (+: ≤30%) |
| CSc1cc(C)[nH]c(=O)c1CNC(=O)c1cc(-c2ccc(N3C[C@@H](C)O[C@@H](C)C3)nc2)c2c(c1C)OC(C)(C1CCN(CC(F)(F)F)CC1)O2 (single isomer, unassigned) [Compound 45] | – | ++ (++: more than 30% and less than 70%) | ++ (++: more than 30% and less than 70%) | + (+: ≤30%) | + (+: ≤30%) | – | – | – | ++ (++: more than 30% and less than 70%) | + (+: ≤30%) |
| CCN(C)c1ccc(-c2cc(C(=O)NCc3c(SC)cc(C)[nH]c3=O)c(C)c3c2OC(C)(C2CCN(CC(F)(F)F)CC2)O3)cn1 (single isomer, unassigned) [Compound 80, 7-(2-(ethyl(methyl)amino)pyridin-5-yl)-2,4-dimethyl-N-((6-methyl-4-(methylthio)-2-oxo-1,2-dihydropyridin-3-yl)methyl)-2-(1-(2,2,2-trifluoroethyl)piperidin-4-yl)benzo[d][1,3]dioxole-5-carboxamide] | – | – | – | + (+: ≤30%) | + (+: ≤30%) | + (+: ≤30%) | +++ (+++: ≥70%) | + (+: ≤30%) | – | ++ (++: more than 30% and less than 70%) |
